Our source for the TGI and GI50 values is PubChem BioAssay (NCI).

Assay in all cases: growth of human tumour cells (NCI), 48 h
The test system of experiment [1] is UACC-62 melanoma.
The subject of experiment [2] is A498 renal.
The subject of experiment [3] is CAKI-1 renal.
The test system of experiment [4] is SNB-75 CNS.
In experiment [5] the test system is IGROV1 ovarian.
Experiment [6] has as its system HOP-62 NSCLC.
In experiment [7] the test system is HCC-2998 colon.
Experiment [8] has as its system MOLT-4 leukemia.
In experiment [9] the test system is T-47D breast.

Where “and” joins values, the source holds several entries; their conditions need not be identical. Equal entries are not always repeated.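 Step 1: Grow cells in 96-well plates. Step 2: Expose to compound for 48 hours at 5 concentrations. Step 3: Interpolate endpoints linearly; if unreached, use highest concentration. Here, GI50 denotes the concentration required for 50% inhibition of growth. TGI: concentration producing complete growth inhibition.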

As for `Cc1ccc(NC(=O)OCC(COc2ccc(Cl)cc2Cl)OC(=O)Nc2ccc(C)cc2)cc1` (stereo not drawn), the TGI in experiment [1] is over 100 µM; in experiment [2] it was over 100 µM; in experiment [3], over 100 µM; in experiment [4], 68.2 µM; in [5] it was over 100 µM; in experiment [6], over 100 µM. Besides, the TGI in [7] was over 100 µM.

As for `CCCCCCCCCCCCCB(O)O`, the TGI in experiment [1] is over 100 µM; in experiment [2], over 100 µM; in experiment [4] it was > 100 µM and 37.6 µM; in experiment [5] it was over 100 µM; in [6], over 100 µM; in experiment [7] it was > 100 µM and 84.7 µM. The GI50 in [7] is > 100 µM and 32 µM.

On to `CC(=O)O[C@H]1CC2C=CC3C(CCC31)O2` (stereo partly drawn), for which the TGI in [1], in experiment [3], in experiment [4], in experiment [8], in [5] and in experiment [6] was over 100 µM each time. For the same compound, the TGI in [7] is over 100 µM.

For `C=C(CCCO)[C@@H]1CC[C@@](C)(O)[C@H]1C`, the TGI in experiment [1], in experiment [3], in experiment [4], in experiment [8], in experiment [5] and in [7] was over 100 µM each time.

Take `CC(C)C1N2CCCCC2[C@@H]2c3[nH]c4ccccc4c3CCN12` (stereo partly drawn): the TGI in [1], in experiment [2], in experiment [3], in experiment [4], in experiment [8] and in experiment [5] was over 100 µM in each case. Further, the TGI in [6] and in experiment [7] was over 100 µM each time.

For `CC1CC[P+](c2ccccc2)(c2ccccc2)CC1`, the TGI in [1], in [2], in [4], in experiment [8], in experiment [5] and in experiment [6] was over 100 µM in each case. The compound also showed a TGI in experiment [7] of over 100 µM.

On to `COc1ccc2nc(NC(=O)C(=O)NNC(=O)c3ccncc3)sc2c1`, for which the TGI in experiment [1], in [2], in experiment [3], in [4], in [5] and in [6] was over 100 µM in each case. In [7], the TGI is over 100 µM.

Turning to `C/C(=N\NC(=O)CC(=O)N(C(=O)c1ccc(Cl)cc1)c1ccc(C)cc1)c1ccccc1O`, the TGI in experiment [1] was over 100 µM; in experiment [2], over 100 µM; in [3], over 100 µM; in [4], 43.9 µM; in experiment [8], over 100 µM; in experiment [5], over 100 µM. Besides, in experiment [6], the TGI was over 100 µM.

In the case of `COc1cccc(NC(=O)C(=O)C2C=CCS2(=O)=O)c1` (stereo not drawn), the TGI in experiment [1], in experiment [2], in experiment [3], in [4], in experiment [8] and in [5] was over 100 µM in each case. The TGI in [6] and in [7] was over 100 µM throughout.

For the compound `COc1cc(/C=C2\C[C@H]3[C@@H]4CC=C5C[C@@H](OC(C)=O)CC[C@]5(C)[C@H]4CC[C@]3(C)[C@H]2OC(C)=O)ccc1OCCN1CCCC1`, the GI50 in [1] was 9.48 µM; in experiment [9] it was 12.4 µM; in [3], 12 µM; in [8] it was 10.7 µM; in [5] it was 19.3 µM; in experiment [6], 9.43 µM. Moreover, in experiment [7], the GI50 is 8.01 µM. Also, the TGI in experiment [1] was 17.5 µM; in experiment [9] it was 32 µM; in experiment [3] it was 25.6 µM; in [8] it was over 50 µM; in [5] it was over 50 µM; in experiment [6], 20.5 µM. In experiment [7], this compound came in with a TGI of 15.4 µM.

Take `O=C1NC(c2cccc(OCc3ccccc3)c2)Nc2ccccc21` (stereo not drawn): the TGI in experiment [1] is over 27.1 µM; in experiment [9], over 90.1 µM; in experiment [2] it was 4.68 µM; in [3] it was over 32.8 µM; in experiment [4], 0.896 µM; in experiment [8], 2.77 µM. The TGI in experiment [5] turned out to be 93.7 µM; in [6], 26.3 µM; in [7], 0.621 µM.

Regarding `Cc1ccc2nc(NC(=O)/C(=N\NC(=S)NN)C3C(=O)NC(=S)NC3=O)sc2c1`, the TGI in experiment [1], in experiment [2], in [3], in experiment [4], in experiment [8] and in experiment [5] was over 100 µM each time. The TGI in [6] and in [7] was over 100 µM in each case.

With `COC[C@H](C)N=CN1CCc2ccccc2C1(Cc1ccccc1)Cc1ccccc1`, the TGI in experiment [1] was over 100 µM; in experiment [3], 44.3 µM; in experiment [4] it was 43 µM; in [8], 37.9 µM; in experiment [5], over 100 µM; in [6], 95.4 µM.

`CCOC(=O)CNc1nnnn1C1OC(CO)C(O)C1O` (stereo not drawn): the TGI in [1], in experiment [2], in experiment [3], in [4], in experiment [8] and in experiment [5] was over 100 µM in each case. Moreover, the TGI in [6] and in experiment [7] was over 100 µM in each case.

On to `[CH3][Sn]([CH3])([CH3])[O][N+](=O)[O-]`, for which the GI50 was 3.91 µM in experiment [1]; 4.09 µM in [9]; 4.24 µM in experiment [3]; over 10 µM in [4]; 3.2 µM in experiment [8]; 2.39 µM in [5]. Besides, the GI50 in [6] is 6.41 µM; in experiment [7], over 10 µM. The TGI in [1], in [9], in experiment [3], in [4], in experiment [8] and in experiment [5] was over 10 µM throughout. The TGI in experiment [6] and in [7] was over 10 µM in each case.

Turning to `c1ccc2c(NCCCCCCNc3cccc4ccccc34)cccc2c1`, the TGI in experiment [1], in [2], in experiment [3], in [4], in experiment [8] and in experiment [5] was over 100 µM throughout. For the same compound, the TGI in experiment [6] and in experiment [7] was over 100 µM each time.
